What was measured:
K-562 = test: Inhibition of cells growth by colorimetric (SRB) assay, K-562; conditions: for GI50 / CC50: Homo sapiens, K562, 48 h; for GI50: read-out: GI50 K-562, SRB assay, 48 hours exposure; for CC50: read-out: LC50 K-562, SRB assay, 48 hours exposure; for TGI K-562: SRB assay, 48 hours exposure
Outline: (§1)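 Read-out is sulforhodamine B protein stain (OD 490 nm) after cold TCA fixation, following 48 h continuous exposure to samples spanning 10 to 10^−8 μg/ml.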

A-549 = test: Inhibition of cells growth by colorimetric (SRB) assay, A-549; conditions: for GI50 / CC50: Homo sapiens, A549, 48 h; for GI50: read-out: GI50 A-549, SRB assay, 48 hours exposure; for CC50: read-out: LC50 A-549, SRB assay, 48 hours exposure; for TGI A-549: SRB assay, 48 hours exposure
Outline: as §1

SK-MEL-28 = test: Inhibition of cells growth by colorimetric (SRB) assay, SK-MEL-28; conditions: for GI50 / CC50: Homo sapiens, SK-MEL-28, 48 h; for GI50: read-out: GI50 MEL-28, SRB assay, 48 hours exposure; for CC50: read-out: LC50 MEL-28, SRB assay, 48 hours exposure; for TGI MEL-28: SRB assay, 48 hours exposure
Outline: as §1

HT-29 = test: Inhibition of cells growth by colorimetric (SRB) assay, HT-29; conditions: for GI50 / CC50: Homo sapiens, HT-29, 48 h; for GI50: read-out: GI50 HT-29, SRB assay, 48 hours exposure; for CC50: read-out: LC50 HT-29, SRB assay, 48 hours exposure; for TGI HT-29: SRB assay, 48 hours exposure
Outline: as §1

LoVo = test: Inhibition of cells growth by colorimetric (SRB) assay, LoVo; conditions: for GI50 / CC50: Homo sapiens, LoVo, 48 h; for GI50: read-out: GI50 LOVO, SRB assay, 48 hours exposure; for CC50: read-out: LC50 LOVO, SRB assay, 48 hours exposure; for TGI LOVO: SRB assay, 48 hours exposure
Outline: as §1

LoVo-Dox = test: Inhibition of cells growth by colorimetric (SRB) assay, LoVo-Dox; conditions: for GI50 / CC50: Homo sapiens, 48 h; for GI50: read-out: GI50 LOVO-DOX, SRB assay, 48 hours exposure; for CC50: read-out: LC50 LOVO-DOX, SRB assay, 48 hours exposure; for TGI LOVO-DOX: SRB assay, 48 hours exposure
Outline: as §1

DU-145 = test: Inhibition of cells growth by colorimetric (SRB) assay, DU-145; conditions: for GI50 / CC50: Homo sapiens, DU-145, 48 h; for GI50: read-out: GI50 DU-145, SRB assay, 48 hours exposure; for CC50: read-out: LC50 DU-145, SRB assay, 48 hours exposure; for TGI DU-145: SRB assay, 48 hours exposure
Outline: as §1

LNCaP = test: Inhibition of cells growth by colorimetric (SRB) assay, LNCaP; conditions: for GI50 / CC50: Homo sapiens, LNCaP, 48 h; for GI50: read-out: GI50 LN-caP, SRB assay, 48 hours exposure; for CC50: read-out: LC50 LN-caP, SRB assay, 48 hours exposure; for TGI LN-caP: SRB assay, 48 hours exposure
Outline: as §1

SK-BR-3 = test: Inhibition of cells growth by colorimetric (SRB) assay, SK-BR-3; conditions: for GI50 / CC50: Homo sapiens, SK-BR-3, 48 h; for GI50: read-out: GI50 SK-BR-3, SRB assay, 48 hours exposure; for CC50: read-out: LC50 SK-BR-3, SRB assay, 48 hours exposure; for TGI SK-BR-3: SRB assay, 48 hours exposure
Outline: as §1

IGROV-1 = test: Inhibition of cells growth by colorimetric (SRB) assay, IGROV-1; conditions: for GI50 / CC50: Homo sapiens, IGROV-1, 48 h; for GI50: read-out: GI50 IGROV, SRB assay, 48 hours exposure; for CC50: read-out: LC50 IGROV, SRB assay, 48 hours exposure; for TGI IGROV: SRB assay, 48 hours exposure
Outline: as §1

IGROV-ET = test: Inhibition of cells growth by colorimetric (SRB) assay, IGROV-ET; conditions: for GI50 / CC50: Homo sapiens, 48 h; for GI50: read-out: GI50 IGROV-ET, SRB assay, 48 hours exposure; for CC50: read-out: LC50 IGROV-ET, SRB assay, 48 hours exposure; for TGI IGROV-ET: SRB assay, 48 hours exposure
Outline: as §1

PANC-1 = test: Inhibition of cells growth by colorimetric (SRB) assay, PANC-1; conditions: for GI50 / CC50: Homo sapiens, PANC-1, 48 h; for GI50: read-out: GI50 PANC-1, SRB assay, 48 hours exposure; for CC50: read-out: LC50 PANC-1, SRB assay, 48 hours exposure; for TGI PANC-1: SRB assay, 48 hours exposure
Outline: as §1

[1] = Inhibition of cells growth by colorimetric (SRB) assay, HMEC1; conditions: human, HMEC1 cells, LC50 H-MEC-1, SRB assay, 48 hours exposure
HMEC1 = test: as above; conditions: for GI50: Homo sapiens, HMEC-1, 48 h, read-out: GI50 H-MEC-1, SRB assay, 48 hours exposure; for TGI H-MEC-1: SRB assay, 48 hours exposure, in M (unit assumed)

## COc1nccc(-c2c3c(N)ccnc3n3c(N)nccc23)n1 [Compound 88]
K-562
  GI50: 6.09 µM
  CC50: 18.7 µM
  TGI K-562: 1.87E−05
A-549
  GI50: 1.03 µM
  CC50: 18.7 µM
  TGI A-549: 6.95E−06
SK-MEL-28
  GI50: 1.43 µM
  CC50: 11.2 µM
  TGI MEL-28: 4.17E−06
HT-29
  GI50: 1.03 µM
  CC50: 18.7 µM
  TGI HT-29: 1.87E−05
LoVo
  GI50: 1.34 µM
  CC50: 12.9 µM
  TGI LOVO: 4.37E−06
LoVo-Dox
  GI50: 1.06 µM
  CC50: 15.1 µM
  TGI LOVO-DOX: 3.87E−06
DU-145
  GI50: 0.902 µM
  CC50: 18.7 µM
  TGI DU-145: 1.87E−05
LNCaP
  GI50: 0.415 µM
  CC50: 1.59 µM
  TGI LN-caP: 8.13E−07
SK-BR-3
  GI50: 0.562 µM
  CC50: 18.7 µM
  TGI SK-BR-3: 1.36E−06
IGROV-1
  GI50: 3.23 µM
  CC50: 18.7 µM
  TGI IGROV: 9.58E−06
IGROV-ET
  GI50: 1.4 µM
  CC50: 18.7 µM
  TGI IGROV-ET: 6.74E−06
PANC-1
  GI50: 5.85 µM
  CC50: 18.7 µM
  TGI PANC-1: 1.87E−05
[1]
  CC50 at 48 h: 18.7 µM
HMEC1
  GI50: 0.99 µM
  TGI H-MEC-1: 9.71E−06

## Nc1nccc(-c2c3c(F)ccnc3n3c(N)nccc23)n1 [Compound 115]
K-562
  GI50: 4.47 µM
  CC50: 28.9 µM
  TGI K-562: 1.13E−05
A-549
  GI50: 0.748 µM
  CC50: ≥ 33.9 µM
  TGI A-549: 1.97E−06
SK-MEL-28
  GI50: 1.12 µM
  CC50: 12.1 µM
  TGI MEL-28: 4.13E−06
HT-29
  GI50: 2.15 µM
  CC50: ≥ 33.9 µM
  TGI HT-29: 1.31E−05
LoVo
  GI50: 0.894 µM
  CC50: ≥ 33.9 µM
  TGI LOVO: 1.91E−06
LoVo-Dox
  GI50: 1.39 µM
  CC50: ≥ 33.9 µM
  TGI LOVO-DOX: 5.76E−06
DU-145
  GI50: 0.759 µM
  CC50: 10.7 µM
  TGI DU-145: 1.79E−06
LNCaP
  GI50: 0.721 µM
  CC50: 2.34 µM
  TGI LN-caP: 1.30E−06
SK-BR-3
  GI50: 0.752 µM
  CC50: 6.23 µM
  TGI SK-BR-3: 1.69E−06
IGROV-1
  GI50: 1.23 µM
  CC50: ≥ 33.9 µM
  TGI IGROV: 5.22E−06
IGROV-ET
  GI50: 1.47 µM
  CC50: ≥ 33.9 µM
  TGI IGROV-ET: 6.84E−06
PANC-1
  GI50: 2.05 µM
  CC50: ≥ 33.9 µM
  TGI PANC-1: 9.35E−06
[1]
  CC50 at 48 h: 5.96 µM
HMEC1
  GI50: 0.599 µM
  TGI H-MEC-1: 1.56E−06

Reference: US7772241B2, “Variolin derivatives and their use as antitumor agents” (Pharma Mar S.A., priority 2001, dated 2010)
